According to PubChem BioAssay AID256 (DTP/NCI, 2004):
“And” between values parts separate entries of the source, which are not always exact repeats. Equal values may be shown once. Inconclusive results and toxic doses are left out. The calls were made as follows: active = survival T/C of 150% or more; inactive = T/C below 125% in these data.

Test system: CD2F1 mice, L1210 leukemia ip, survival T/C
Test: NCI In Vivo Anticancer Drug Screen. Data for tumor model L1210 Leukemia (intraperitoneal) in CD2F1 (CDF1) mice
Details: higher = longer survival
Outline: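 Read-out first: treated-group measurement over vehicle-control measurement, expressed as a ratio. Animals bore a transplanted tumor line and were dosed with compound or vehicle.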

[1] = endpoint: mean survival time, dose: 100.0 mg/kg/injection, schedule: Q04DX003 (ip), vehicle: saline with Tween-80
[2] = endpoint: mean survival time, dose: 200.0 mg/kg/injection, schedule: Q04DX003 (ip), vehicle: saline with Tween-80
[3] = endpoint: mean survival time, dose: 400.0 mg/kg/injection, schedule: Q04DX003 (ip), vehicle: saline with Tween-80
[4] = endpoint: mean survival time, dose: 50.0 mg/kg/injection, schedule: Q01DX009 (ip), vehicle: saline with Tween-80
[5] = endpoint: mean survival time, dose: 100.0 mg/kg/injection, schedule: Q01DX009 (ip), vehicle: saline with Tween-80
[6] = endpoint: mean survival time, dose: 50.0 mg/kg/injection, schedule: Q01DX009 (ip), vehicle: saline
[7] = endpoint: mean survival time, dose: 100.0 mg/kg/injection, schedule: Q01DX009 (ip), vehicle: saline sonified
[8] = endpoint: mean survival time, dose: 200.0 mg/kg/injection, schedule: Q01DX009 (ip), vehicle: saline sonified
[9] = endpoint: mean survival time, dose: 400.0 mg/kg/injection, schedule: Q01DX009 (ip), vehicle: saline sonified
[10] = endpoint: mean survival time, dose: 200.0 mg/kg/injection, schedule: Q01DX009 (ip), vehicle: saline with Tween-80
[11] = endpoint: mean survival time, dose: 12.5 mg/kg/injection, schedule: Q01DX009 (ip), vehicle: Klucel (hydroxypropylcellulose) (HPC)
[12] = endpoint: mean survival time, dose: 25.0 mg/kg/injection, schedule: Q01DX009 (ip), vehicle: Klucel (hydroxypropylcellulose) (HPC)
[13] = endpoint: mean survival time, dose: 50.0 mg/kg/injection, schedule: Q01DX009 (ip), vehicle: Klucel (hydroxypropylcellulose) (HPC)
[14] = endpoint: mean survival time, dose: 100.0 mg/kg/injection, schedule: Q01DX009 (ip), vehicle: Klucel (hydroxypropylcellulose) (HPC)
[15] = endpoint: mean survival time, dose: 200.0 mg/kg/injection, schedule: Q01DX009 (ip), vehicle: Klucel (hydroxypropylcellulose) (HPC)
[16] = endpoint: mean survival time, dose: 400.0 mg/kg/injection, schedule: Q01DX009 (ip), vehicle: Klucel (hydroxypropylcellulose) (HPC)
[17] = endpoint: mean survival time, dose: 400.0 mg/kg/injection, schedule: Q01DX009 (ip), vehicle: saline with Tween-80
[18] = endpoint: mean survival time, dose: 50.0 mg/kg/injection, schedule: Q01DX001 (ip), vehicle: saline
[19] = endpoint: mean survival time, dose: 100.0 mg/kg/injection, schedule: Q01DX001 (ip), vehicle: saline
[20] = endpoint: mean survival time, dose: 200.0 mg/kg/injection, schedule: Q01DX001 (ip), vehicle: saline

Measured: T/C

COC1=CC=C2[C@@H]3Cc4ccc(OC)c5c4[C@]2(CCN3CCO)C1O5 (some centres undefined)
inactive: endpoint: mean survival time, dose: 25.0 mg/kg/injection, schedule: Q04DX003 (ip), vehicle: DMSO 94 % of control | endpoint: mean survival time, dose: 50.0 mg/kg/injection, schedule: Q04DX003 (ip), vehicle: DMSO 96 % of control | endpoint: mean survival time, dose: 100.0 mg/kg/injection, schedule: Q04DX003 (ip), vehicle: DMSO 94 % of control | endpoint: mean survival time, dose: 200.0 mg/kg/injection, schedule: Q04DX003 (ip), vehicle: DMSO 91 % of control | endpoint: mean survival time, dose: 400.0 mg/kg/injection, schedule: Q04DX003 (ip), vehicle: DMSO 105 % of control

CC(=O)CC(OC(=O)c1cc([N+](=O)[O-])cc([N+](=O)[O-])c1)(C(F)(F)F)C(F)(F)F
inactive: endpoint: mean survival time, dose: 100.0 mg/kg/injection, schedule: Q04DX003 (ip), vehicle: Klucel (hydroxypropylcellulose) (HPC) 91 % of control

CCCCCCCCCCCCCCCCS(=O)(=O)CCO
inactive: [1] 90 % of control | [2] 88 % of control | [3] 90 % of control

O=C(SCN1CCCCC1)c1ccccc1
inactive: [4] 98 % of control | [5] 103 % of control | [1] 97 % of control | [2] 95 % of control

N/C(=N\Cl)C(Cl)(Cl)Cl
inactive: endpoint: mean survival time, dose: 12.5 mg/kg/injection, schedule: Q01DX009 (ip), vehicle: saline 105 % of control | endpoint: mean survival time, dose: 25.0 mg/kg/injection, schedule: Q01DX009 (ip), vehicle: saline 103 % of control | [6] 109 % of control

CC(C)C(C(O)c1ccccc1)[N+](=O)[O-] (centres undefined)
inactive: [7] 102 % of control | [1] 102 % of control | [8] 102 % of control | [2] 96 % of control | [9] 100 % of control | [3] 100 % of control

CC/C=C\CC1OCCO1
inactive: [4] 95 % of control | [5] 92 % of control | [10] 95 % of control

ClCc1c2ccccc2cc2ccccc12
inactive: endpoint: mean survival time, dose: 25.0 mg/kg/injection, schedule: Q04DX002 (ip), vehicle: saline with Tween-80 104 % of control

CC(=O)Nc1ccc(/C=C2\N=C(c3cccc([N+](=O)[O-])c3)OC2=O)cc1
inactive: endpoint: mean survival time, dose: 100.0 mg/kg/injection, schedule: Q04DX002 (ip), vehicle: saline with Tween-80 100 % of control | endpoint: mean survival time, dose: 200.0 mg/kg/injection, schedule: Q04DX002 (ip), vehicle: saline with Tween-80 100 % of control | endpoint: mean survival time, dose: 400.0 mg/kg/injection, schedule: Q04DX002 (ip), vehicle: saline with Tween-80 91 % of control

C1CCC(C2CCCC[N-]2)[N-]C1.CC(C)CC([NH-])C(=O)O.[Cl][Pt] (centres undefined)
inactive: endpoint: median survival time, dose: 10.0 mg/kg/injection, schedule: Q04DX003 (ip), vehicle: saline 96 % of control | endpoint: median survival time, dose: 20.0 mg/kg/injection, schedule: Q04DX003 (ip), vehicle: saline 100 % of control | endpoint: median survival time, dose: 40.0 mg/kg/injection, schedule: Q04DX003 (ip), vehicle: saline 97 % of control | endpoint: median survival time, dose: 80.0 mg/kg/injection, schedule: Q04DX003 (ip), vehicle: saline 101 % of control and 104 % of control | endpoint: median survival time, dose: 160.0 mg/kg/injection, schedule: Q04DX003 (ip), vehicle: saline 104 % of control | endpoint: median survival time, dose: 320.0 mg/kg/injection, schedule: Q04DX003 (ip), vehicle: saline 93 % of control

COc1ccc(CCNC2C3CC4CC(C3)CC2C4)cc1OC (centres undefined)
inactive: endpoint: mean survival time, dose: 25.0 mg/kg/injection, schedule: Q04DX003 (ip), vehicle: saline with Tween-80 112 % of control | endpoint: mean survival time, dose: 50.0 mg/kg/injection, schedule: Q04DX003 (ip), vehicle: saline with Tween-80 101 % of control | [1] 101 % of control

O=C1Cc2ccccc2C(=O)N1
inactive: [7] 97 % of control | [8] 98 % of control | [9] 89 % of control

Cc1ccc(S(=O)(=O)N2CCn3ncc(C#N)c32)cc1
inactive: [11] 98 % of control | [12] 95 % of control | [13] 97 % of control | [14] 87 % of control | [15] 89 % of control | [16] 95 % of control

CCN(C(=O)Nc1ccc(Cl)cc1)c1ccccc1
inactive: [5] 97 % of control | [10] 100 % of control | [17] 96 % of control

N#CCCN(C(=S)Nc1cccc(C(F)(F)F)c1)C1CCCCC1
inactive: [11] 92 % of control | [12] 97 % of control | [13] 98 % of control | [14] 98 % of control | [15] 98 % of control | [16] 101 % of control | endpoint: median survival time, dose: 100.0 mg/kg/injection, schedule: Q01DX009 (ip), vehicle: Klucel (hydroxypropylcellulose) (HPC) 101 % of control | endpoint: median survival time, dose: 200.0 mg/kg/injection, schedule: Q01DX009 (ip), vehicle: Klucel (hydroxypropylcellulose) (HPC) 103 % of control | endpoint: median survival time, dose: 400.0 mg/kg/injection, schedule: Q01DX009 (ip), vehicle: Klucel (hydroxypropylcellulose) (HPC) 104 % of control

CC(C)/C=N\O
inactive: [18] 107 % of control | [19] 110 % of control | [20] 107 % of control

[O]=[Nb]
inactive: endpoint: mean survival time, dose: 5.0 mg/kg/injection, schedule: Q04DX003 (ip), vehicle: saline 102 % of control | endpoint: mean survival time, dose: 10.0 mg/kg/injection, schedule: Q04DX003 (ip), vehicle: saline 98 % of control

Oc1ccc(Cl)cc1Cn1ccnc1
inactive: [18] 111 % of control | [6] 104 % of control | endpoint: mean survival time, dose: 50.0 mg/kg/injection, schedule: Q04DX003 (ip), vehicle: saline 106 % of control | [19] 100 % of control | endpoint: mean survival time, dose: 100.0 mg/kg/injection, schedule: Q01DX009 (ip), vehicle: saline 95 % of control and 110 % of control | endpoint: mean survival time, dose: 100.0 mg/kg/injection, schedule: Q04DX002 (ip), vehicle: saline 115 % of control and 101 % of control | endpoint: mean survival time, dose: 100.0 mg/kg/injection, schedule: Q04DX003 (ip), vehicle: saline 101 % of control | [20] 104 % of control | endpoint: mean survival time, dose: 200.0 mg/kg/injection, schedule: Q01DX009 (ip), vehicle: saline 93 % of control and 109 % of control | endpoint: mean survival time, dose: 200.0 mg/kg/injection, schedule: Q04DX002 (ip), vehicle: saline 103 % of control and 112 % of control | endpoint: mean survival time, dose: 200.0 mg/kg/injection, schedule: Q04DX003 (ip), vehicle: saline 113 % of control

COC1=CC(=O)C2(C)CC=CCC2C1 (centres undefined)
inactive: [5] 98 % of control | [1] 92 % of control | [10] 95 % of control | [2] 103 % of control | [17] 95 % of control | [3] 91 % of control

NCCSC1(O)C(=O)c2ccccc2-c2ccccc21 (centres undefined)
inactive: endpoint: mean survival time, dose: 37.5 mg/kg/injection, schedule: Q01DX009 (ip), vehicle: saline 100 % of control | endpoint: mean survival time, dose: 75.0 mg/kg/injection, schedule: Q01DX009 (ip), vehicle: saline 101 % of control | endpoint: mean survival time, dose: 150.0 mg/kg/injection, schedule: Q01DX009 (ip), vehicle: saline 91 % of control

CCC1=CC(C)(C)CC(C)=C1 (tested in a mixture with another compound)
inactive: [4] 110 % of control | [5] 100 % of control | [1] 96 % of control | [2] 96 % of control | [3] 93 % of control

[I][Pt+2][I].[NH-]CC1CCCC[N-]1 (centres undefined)
inactive: endpoint: mean survival time, dose: 3.13 mg/kg/injection, schedule: Q04DX003 (ip), vehicle: distilled water + Tween-80 98 % of control | endpoint: mean survival time, dose: 6.25 mg/kg/injection, schedule: Q04DX003 (ip), vehicle: distilled water + Tween-80 95 % of control | endpoint: mean survival time, dose: 12.5 mg/kg/injection, schedule: Q04DX003 (ip), vehicle: distilled water + Tween-80 95 % of control | endpoint: mean survival time, dose: 25.0 mg/kg/injection, schedule: Q04DX003 (ip), vehicle: distilled water + Tween-80 104 % of control | endpoint: mean survival time, dose: 50.0 mg/kg/injection, schedule: Q04DX003 (ip), vehicle: distilled water + Tween-80 98 % of control

O=c1[nH]c2ncnc(N=Nc3ncnc4[nH]c(=O)[nH]c34)c2[nH]1
inactive: endpoint: mean survival time, dose: 12.5 mg/kg/injection, schedule: Q01DX005 (ip), vehicle: distilled water + Tween-80 98 % of control | endpoint: mean survival time, dose: 25.0 mg/kg/injection, schedule: Q01DX005 (ip), vehicle: distilled water + Tween-80 89 % of control | endpoint: mean survival time, dose: 50.0 mg/kg/injection, schedule: Q01DX005 (ip), vehicle: distilled water + Tween-80 91 % of control | endpoint: mean survival time, dose: 100.0 mg/kg/injection, schedule: Q01DX005 (ip), vehicle: distilled water + Tween-80 94 % of control | endpoint: mean survival time, dose: 200.0 mg/kg/injection, schedule: Q01DX005 (ip), vehicle: distilled water + Tween-80 96 % of control
